Measurements taken from US9862754B2, “Peptide analogs for treating diseases and disorders” (KeyBioscience AG, priority 2011, dated 2018).
Bridge positions count the residues as written; N and C are the ends. Ends that are not written are not given here.

Experiments:
Type in all cases: in vivo, rat
[1] = Example 3: OGTT after 3 days of oral treatment in DIO rats; conditions: doses of 0.5, 1 and 2 mg/kg p.o.
Experimental: (§1) Drug administration were given by per oral (p.o.) gavage b.i.d. during the study period and as single dose in the morning prior to start of OGTT.
(§2) Animals were given 2 g/kg single dose dissolved in milliQ H20.
Following the initial (1st) OGTT, animals were randomized into treatment groups based on FBG and BW. Animals were pre-treated 3 days (b.i.d.) prior to 2nd OGTT. The study was performed in an x-over design with each animal being its own control.
(§3) OGTT Following Overnight Fasting (16 h):
Blood sampling and glycemia were measured by heated tail venous puncture. Whole blood glucose levels were determined with an ACCU-CHEK® Avia blood glucose meter (Roche Diagnostics, Rotkreuz, Switzerland). Blood (approx 300 μl) is collected in 1 ml MiniCollect K3EDTA plasma-tube (Greiner-Bio-One GmbH, Frickenhausen, Germany), inverted, and stored on ice. Tubes are centrifuged 3000×g (5000 rpm in table centrifuge) for 10 min at 4° C. and plasma obtained. Plasma samples are stored at −20° C. until analysis. A total of ˜2.5 ml blood is obtained during OGTT (˜0.3% of body weight).
Statistical analysis was performed by one-way ANOVA followed by the Dunnett's post hoc test for multiple comparison. Student's t-test was performed to compare two paired group. All analysis was performed using GRAPHPAD PRISM software (GraphPad Prism, San Diego, Calif. U.S.A). Incremental area under curve (iAUC) during OGTT was calculated by the trapezoidal method. A value of P<0.05 was considered to be significant. All data are presented as mean±standard error of the mean (SEM).
FIG. 10A, FIG. 10B, FIG. 10C, FIG. 10D, FIG. 10E, and FIG. 10F show the effect of oral sCT versus oral UGPs on glucose tolerance during OGTT in DIO rats. Three different doses of oral sCT/UGP284/UGP298/UGP302 containing 0.5, 1 and 2 mg/kg compound were applied by gavage twice daily to 4 groups of rats for 3 days prior to OGTT. The experimental set-up was a cross-over design. * P<0.05, ** P<0.01, *** P<0.001 vs oral vehicle. Results are presented as means±SEM.

[2] = Example 7: insulin tolerance test in Zucker Diabetic Fatty rats; conditions: ZDF rats; metformin 400 mg/kg/day oral, UGP302 5 μg/kg/day s.c.
Experimental: (§4) To assess the potential of UGP302 (SEQ ID NO: 15) in combination with metformin, Zucker Diabetic Fatty rats were used. At the age of 6 weeks 40 rats were randomized into four groups according to HbA1c, FPG and BW. The groups were: Control (Vehicle), Metformin 400 mg/kg/day, UGP302 5 μg/kg/day and the combination of the two molecules in the stated respective amounts. The treatments were given once daily, and metformin was dosed orally, while UGP302 was given subcutaneously, and the animals were treated for 8 weeks. Fasting blood glucose (FPG) and non-fasted blood glucose (PPG) were monitored biweekly, while HbA1c was measured at termination.
(§5) To further assess the effect of both single doses of each molecule and the combination of these at those same doses, the rats underwent an oral glucose tolerance test (OGTT, FIGS. 23A-23B) and an insulin tolerance test (ITT, FIGS. 24A-24B).

[3] = Example 7: oral glucose tolerance test in Zucker Diabetic Fatty rats; conditions: ZDF rats; metformin 400 mg/kg/day oral, UGP302 5 μg/kg/day s.c.
Experimental: as §4, §5

[4] = Example 2: OGTT after 3 days of oral treatment in DIO rats; conditions: 0.5, 1 and 2 mg/kg p.o. b.i.d. 3 days prior to OGTT, cross-over, vs oral vehicle
Experimental: as §1, §2
Following the initial (1st) OGTT, animals are randomized into treatment groups based on FBG and BW. Animals will be pre-treated 3 days (b.i.d.) prior to 2nd OGTT. Dosing will be performed in the morning (7-8 am) and afternoon (3-4 pm).
The study was performed in an x-over design with each animal being its own control.
as §3
Whole blood glucose levels were determined with an ACCU-CHEK® Avia blood glucose meter (Roche Diagnostics, Rotkreuz, Switzerland). […]
Statistical analysis was performed by one-way ANOVA followed by the Dunnett's post hoc test for multiple comparison. […] Incremental area under curve (iAUC) during OGTT was calculated by the trapezoidal method. […]
Three different doses of oral sCT/calcitonin mimetic 1 containing 0.5, 1 and 2 mg/kg compound were applied by gavage twice daily to 4 groups of rats for 3 days prior to OGTT. […] FIG. 7A and FIG. 7B show the effect of oral sCT versus oral UGP 302 at a first dosage on glucose tolerance during OGTT in DIO rats as measured in Example 2. FIG. 8A and FIG. 8B show the effect of oral sCT versus oral UGP 302 at a second dosage on glucose tolerance during OGTT in DIO rats as measured in Example 2.

Row | Substance | glucose tolerance during OGTT [1] | insulin tolerance (ITT) [2] | glucose tolerance (OGTT) [3] | glucose iAUC during OGTT [4]
1 | Ac-CSNLSTCVLGKLSQELHKLQTYPRTDVGANAP-NH2 (Ac-CSNLSTCVLGKLSQELHKLQTYPRTDVGANAP-NH2; ends and bridges not checked) [UGP302, calcitonin mimetic] | improvement in glucose tolerance | individually improve | individually improve | –
2 | salmon calcitonin (CSNLSTCVLGKLSQELHKLQTYPRTNTGSGTP-NH2; disulfide 1-7; ends not checked) [sCT, reference compound] | – | – | – | significantly reduced glucose iAUC
